According to patent US4472401A, “Pyrimido-quinoxalines having antiallergic properties” (Roussel Uclaf, priority 1981, dated 1984):

Tested on: passive cutaneous reaction mediated by Ig G antibodies
Test: Passive cutaneous anaphylaxis in the rat (PCR), Ig G mediated, inhibition after oral administration
Format: in vivo
Settings: male Wistar rats
Protocol: Passive cutaneous anaphylaxis in the rat (PCR)
Passive cataneous anaphylaxis in the rat was carried out in male Wistar rats weighing 180-200 g sensitized by intradermal injection into four sites on shaved backs so as to produce a passive cutaneous reaction mediated by Ig G antibodies (a 4 hour sensitization following injection of antiserum heated at 56° C. for one hour). Antigen challenge was carried out in the same way; 1 mg of ovalbumen together with 0.5 ml of 1% Evans blue dye solution was injected intravenously and 30 minutes later, the animals were killed and the severity and area of each blue spot was scored when viewed from the reverse side of the skin.

Structure (SMILES) | inhibition in vivo at 1 mg/kg [%] | inhibition in vivo at 10 mg/kg [%] | inhibition in vivo at 0.1 mg/kg [%]
CCOC(=O)c1cnc2n(c1=O)-c1ccccc1NC2 [Example 1, Ethyl 5,6-dihydro-1-oxo-1H-pyrimido [1,2-a] quinoxaline-2-carboxylate] | 23 | 51 | 
CCOC(=O)c1cnc2n(c1=O)-c1ccccc1N(C(=O)OCC)C2 [Example 2, Diethyl 5,6-dihydro-1-oxo-1H-pyrimido [1,2-a] quinoxaline-2,6-dicarboxylate] | 31 | 34.9 | 
CCOC(=O)c1cnc2n(c1=O)-c1ccccc1N(C(C)=O)C2 [Example 3, Ethyl 6-acetyl-5,6-dihydro-1-oxo-1H-pyrimido [1,2-a] quinoxaline-2-carboxylate] | 18.5 | 33.3 | 
CCOC(=O)c1cnc2n(c1=O)-c1ccccc1N(C(=O)C(C)C)C2 [Example 4] | 16 | 8.9 | 4.1
CCOC(=O)c1cnc2n(c1=O)-c1ccccc1N(C(=O)C1CC1)C2 [Example 5] | 23 | 33.3 | 
CCOC(=O)c1cnc2n(c1=O)-c1ccccc1N(C(=O)c1ccccc1)C2 [Example 6, ethyl 6-benzoyl-1-oxo-5,6-dihydro-1H-pyrimido [1,2,-a] quinoxaline-2-carboxylate] | 23 | 43 | 
CCOC(=O)c1cnc2n(c1=O)-c1ccccc1N(C(=O)CC)C2 [Example 7] | 8.2 | 5.8 | 
CCOC(=O)c1cnc2n(c1=O)-c1ccccc1N(C(=O)C1CCCC1)C2 [Example 8] | 5.4 | 14.8 | 
CCOC(=O)c1cnc2n(c1=O)-c1ccccc1N(C=O)C2 [Example 13, Ethyl 5,6-dihydro-6-formyl-1-oxo-1H-pyrimido [1,2-a]quinoxaline-2-carboxylate] | 4.1 | 12.4 | 0.6
CCOC(=O)c1cnc2n(c1=O)-c1ccccc1N(C(=O)Nc1ccccc1)C2 [Example 14, Ethyl 5,6-dihydro-1-oxo-6-phenylcarbamoyl-1H-pyrimido [1,2-a] quinoxaline-2-carboxylate] | 17.6 | 15.2 | 
CCOC(=O)c1cnc2n(c1=O)-c1ccccc1N(C)C2 [Example 15, Ethyl 5,6-dihydro-6-methyl-1-oxo-1H-pyrimido [1,2-a] quinoxaline-2-carboxylate] | 7.7 | 30.2 | 7.7
